In patent US20230302150A1, “ANTIBODY-TLR AGONIST CONJUGATES, METHODS AND USES THEREOF” (Ambrx, Inc., priority 2020, published 2023):
Like-named read-outs stand apart in the source and are kept apart here. Each block holds one compound with its values, some of them ahead of it.

Target: T1, hTLR7 (Homo sapiens, UniProt Q9NYK1)
T1 construct: expressed in transfected cells; host or cells: HEK-Blue hTLR7 reporter cell line
T1 sequence (Q9NYK1 27-1049): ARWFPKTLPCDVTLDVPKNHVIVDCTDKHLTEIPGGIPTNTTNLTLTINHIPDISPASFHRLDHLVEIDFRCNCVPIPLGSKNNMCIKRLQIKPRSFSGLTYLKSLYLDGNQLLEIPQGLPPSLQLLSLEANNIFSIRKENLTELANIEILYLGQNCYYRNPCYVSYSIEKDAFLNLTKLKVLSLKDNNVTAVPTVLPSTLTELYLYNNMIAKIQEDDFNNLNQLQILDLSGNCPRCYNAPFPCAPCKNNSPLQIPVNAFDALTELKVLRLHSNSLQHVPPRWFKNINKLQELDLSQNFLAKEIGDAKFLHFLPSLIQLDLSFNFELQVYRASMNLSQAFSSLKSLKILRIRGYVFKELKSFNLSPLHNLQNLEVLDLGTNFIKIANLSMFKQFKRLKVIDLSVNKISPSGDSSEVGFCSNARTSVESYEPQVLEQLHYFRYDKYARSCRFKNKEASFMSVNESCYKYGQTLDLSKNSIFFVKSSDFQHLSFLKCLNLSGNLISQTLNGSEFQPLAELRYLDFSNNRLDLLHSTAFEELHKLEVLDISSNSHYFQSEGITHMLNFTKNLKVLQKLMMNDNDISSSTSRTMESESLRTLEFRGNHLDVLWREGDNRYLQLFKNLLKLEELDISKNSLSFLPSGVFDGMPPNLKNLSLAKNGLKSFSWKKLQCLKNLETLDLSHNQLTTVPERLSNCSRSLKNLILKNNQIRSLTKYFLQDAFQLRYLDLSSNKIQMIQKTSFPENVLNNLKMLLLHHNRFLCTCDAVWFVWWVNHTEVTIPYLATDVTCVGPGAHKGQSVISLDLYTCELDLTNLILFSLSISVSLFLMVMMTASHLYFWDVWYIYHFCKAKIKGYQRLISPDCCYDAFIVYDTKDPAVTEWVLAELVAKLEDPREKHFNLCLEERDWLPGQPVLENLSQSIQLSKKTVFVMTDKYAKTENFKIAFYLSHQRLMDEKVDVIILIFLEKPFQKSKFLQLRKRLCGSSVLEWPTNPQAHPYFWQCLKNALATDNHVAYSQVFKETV
Test: HEK-Blue hTLR7 reporter assay (NF-kB-induced SEAP, Quanti-Blue)
Assay type: cell-based
Description: HEK-Blue™ hTLR7 cells were incubated in HEK-Blue™ Detection medium and stimulated with increasing concentrations of TLR7 or TLR8 or TLR7/8 agonists. […] The EC50 was determined from dose-response curve using Prism Software.

[1] = Table 19, TLR7, drug-linkers with PEG shielding, read-out: EC50
[2] = Table 18, TLR7, PEG shielding, read-out: EC50
[3] = Table 11, TLR7 activities, read-out: EC50

Structure (SMILES): CCCCOc1nc(N)c2[nH]c(=O)n(Cc3ccc(CN4CCC(CCNC(=O)[C@@H](N)CCCCn5cc(CON)nn5)CC4)cc3)c2n1 [AXC-935, (S)-2-amino-N-(2-(1-(4-((6-amino-2-butoxy-8-oxo-7,8-dihydro-9H-purin-9-yl)methyl)benzyl)piperidin-4-yl)ethyl)-6-(4-((aminooxy)methyl)-1H-1,2,3-triazol-1-yl)hexanamide]
EC50 [1]: 0.04 µM

EC50 (Table 10, read-out: TLR7 EC50): > 5 µM
Structure (SMILES): CCCCc1nc2c(N)nc3ccccc3c2n1CCCCNC(=O)c1cc(F)c(NC(=O)[C@H](CCCNC(N)=O)NC(=O)[C@@H](NC(=O)CON)C(C)C)c(F)c1 [AXC-801, N-(4-(4-amino-2-butyl-1H-imidazo[4,5-c]quinolin-1-yl)butyl)-4-((S)-2-((S)-2-(2-(aminooxy)acetamido)-3-methylbutanamido)-5-ureidopentanamido)-3,5-difluorobenzamide]

EC50 (Table 10, read-out: TLR7 EC50): 0.26 µM
Structure (SMILES): CCCCc1nc2c(N)nc3ccccc3c2n1CCCCNC(=O)c1ccc(F)c(N)c1 [AXC-804, 3-amino-N-(4-(4-amino-2-butyl-1H-imidazo[4,5-c]quinolin-1-yl)butyl)-4-fluorobenzamide]

EC50 (Table 10, read-out: TLR7 EC50): 0.256 µM
Structure (SMILES): CCCCc1nc2c(N)nc3cccnc3c2n1CCCCNC(=O)c1cnccn1 [AXC-732, N-(4-(4-amino-2-butyl-1H-imidazo[4,5-c][1,5]naphthyridin-1-yl)butyl)pyrazine-2-carboxamide]

Structure (SMILES): CCCCOc1nc(N)c2[nH]c(=O)n(Cc3ccc(CN4CCC(CCNC(=O)[C@H](CCCCNC(=O)CON)NC(=O)CCOCCOCCOCCOCCOCCOCCOCCOCCOCCOCCOCCOCCOCCOCCOCCOCCOCCOCCOCCOCCOCCOCCOCCOC)CC4)cc3)c2n1 [AXC-924, (S)—N-(2-(1-(4-((6-amino-2-butoxy-8-oxo-7,8-dihydro-9H-purin-9-yl)methyl)benzyl)piperidin-4-yl)ethyl)-6-(2-(aminooxy)acetamido)-2-PEG24-amidohexanamide]
EC50 [2]: 0.398 µM

EC50 (Table 10, read-out: TLR7 EC50): 0.0833 µM
Structure (SMILES): CCCCc1nc2c(N)nc3ccccc3c2n1CCCCNC(=O)c1ccc(N)c(F)c1 [AXC-778, 4-amino-N-(4-(4-amino-2-butyl-1H-imidazo[4,5-c]quinolin-1-yl)butyl)-3-fluorobenzamide]

Structure (SMILES): CCCCOc1nc(N)c2[nH]c(=O)n(Cc3ccc(CN4CCC(CCNC(=O)[C@H](CCCCNC(=O)CON)NC(=O)CCOCCOCCOCCOCCOCCOCCOCCOCCOCCOCCOCCOC)CC4)cc3)c2n1 [AXC-940, (S)—N-(2-(1-(4-((6-amino-2-butoxy-8-oxo-7,8-dihydro-9H-purin-9-yl)methyl)benzyl)piperidin-4-yl)ethyl)-6-(2-(aminooxy)acetamido)-2-PEG12-amidohexanamide]
EC50 [1]: 0.644 µM

Structure (SMILES): CCCCOc1nc(N)c2[nH]c(=O)n(Cc3ccc(CN4CCC(CCNC(=O)[C@H](CCCCNC(=O)CON)NC(=O)CCCC(=O)NCCOCCOCCOCCOCCC(=O)NC(COCCC(=O)NCCOCCOCCOCCOCCOCCOCCOCCOC)(COCCC(=O)NCCOCCOCCOCCOCCOCCOCCOCCOC)COCCC(=O)NCCOCCOCCOCCOCCOCCOCCOCCOC)CC4)cc3)c2n1 [AXC-945, (S)—N-(2-(1-(4-((6-amino-2-butoxy-8-oxo-7,8-dihydro-9H-purin-9-yl)methyl)benzyl)piperidin-4-yl)ethyl)-6-(2-(aminooxy)acetamido)-2-dPEG4-(m-dPEG8)3-amidohexanamide]
EC50 [1]: 0.232 µM

Structure (SMILES): CCCCOc1nc(N)c2[nH]c(=O)n(Cc3ccc(CN4CCC(CCNC(=O)[C@H](CCCCN)NC(=O)CON)CC4)cc3)c2n1 [AXC-947, (S)-6-amino-N-(2-(1-(4-((6-amino-2-butoxy-8-oxo-7,8-dihydro-9H-purin-9-yl)methyl)benzyl)piperidin-4-yl)ethyl)-2-(2-(aminooxy)acetamido)hexanamide]
EC50 [1]: 0.337 µM

EC50 (Core 3 compounds, assay not given, read-out: EC50): > 10 µM
Structure (SMILES): NOCC(=O)NCCC1CCN(Cc2ccc(Cn3ccc4c5nc(N)ncc5ccc43)cc2)CC1 [AXC-970, N-(2-(1-(4-((2-amino-7H-pyrrolo[2,3-h]quinazolin-7-yl)methyl)benzyl)piperidin-4-yl)ethyl)-2-(aminooxy)acetamide]

Structure (SMILES): CCCCOc1nc(N)c2[nH]c(=O)n(Cc3ccc(CN4CCC(CCNC(=O)[C@H](CCCCNC(=O)CON)NC(=O)OCc5ccc(NC(=O)[C@H](C)NC(=O)[C@@H](NC(=O)CCOCCOCCOCCOCCOCCOCCOCCOCCOCCOCCOCCOCCOCCOCCOCCOCCOCCOCCOCCOCCOCCOCCOCCOC)C(C)C)cc5)CC4)cc3)c2n1 [AXC-925, 4-((S)-2-((S)-3-methyl-2-PEG24-amidobutanamido)propanamido)benzyl ((S)-1-((2-(1-(4-((6-amino-2-butoxy-8-oxo-7,8-dihydro-9H-purin-9-yl)methyl)benzyl)piperidin-4-yl)ethyl)amino)-6-(2-(aminooxy)acetamido)-1-oxohexan-2-yl)carbamate]
EC50 [2]: 1.59 µM

Structure (SMILES): CCCCOc1nc(N)c2[nH]c(=O)n(Cc3ccc(N4CCC(CCNC(=O)CCOCCON)CC4)nc3)c2n1 [AXC-876, N-(2-(1-(5-((6-amino-2-butoxy-8-oxo-7H-purin-9(8H)-yl)methyl)pyridin-2-yl)piperidin-4-yl)ethyl)-3-(2-(aminooxy)ethoxy)propanamide]
EC50 (Table 12, TLR7 agonists attached to a linker, read-out: TLR Agonist Payload + Linkers EC50): 0.362 µM
EC50 (Table 15, drug linker, read-out: TLR Agonist + Linker (DL) - EC50): 0.362 µM
EC50 (Table 15, pAF containing final metabolite, read-out: TLR Agonist + Linker + nnAA (DL-pAF) - EC50): 0.245 µM

Structure (SMILES): CCCCOc1nc(N)c2[nH]c(=O)n(Cc3ccc(CN4CCC(CCNC(=O)[C@@H](N)CCCCNC(=O)CON)CC4)cc3)c2n1 [AXC-913, (S)-2-amino-N-(2-(1-(4-((6-amino-2-butoxy-8-oxo-7,8-dihydro-9H-purin-9-yl)methyl)benzyl)piperidin-4-yl)ethyl)-6-(2-(aminooxy)acetamido)hexanamide]
EC50 [2]: 0.0296 µM

Structure (SMILES): CCCCOc1nc(N)c2[nH]c(=O)n(Cc3ccc(CN4CCC(CCNC(=O)[C@H](CCCNC(=N)N)NC(=O)CON)CC4)cc3)c2n1 [AXC-897, (S)—N-(2-(1-(4-((6-amino-2-butoxy-8-oxo-7H-purin-9(8H)-yl)methyl)benzyl)piperidin-4-yl)ethyl)-2-(2-(aminooxy)acetamido)-5-guanidinopentanamide]
EC50 (Table 13, TLR7, read-out: EC50): 0.33 µM

Structure (SMILES): CCCCCC(=O)Nc1nc(OCCCC)nc2c1[nH]c(=O)n2Cc1ccc(CN2CCC(CCN)CC2)cc1 [AXC-963, N-(9-(4-((4-(2-aminoethyl)piperidin-1-yl)methyl)benzyl)-2-butoxy-8-oxo-8,9-dihydro-7H-purin-6-yl)hexanamide]
EC50 [1]: 0.0194 µM

Structure (SMILES): CCCCOc1nc(N)c2[nH]c(=O)n(Cc3ccc(CN4CCC(CCNC(C)=O)CC4)cc3)c2n1 [AXC-886, N-(2-(1-(4-((6-amino-2-butoxy-8-oxo-7H-purin-9(8H)-yl)methyl)benzyl)piperidin-4-yl)ethyl)acetamide]
EC50 [3]: 0.0167 µM

Structure (SMILES): CCCCOc1cc2c([nH]c(=O)n2Cc2ccc(CN3CCC(CCNC(=O)c4ccc(N)cc4)CC3)cc2)c(N)n1 [AXC-905, 4-amino-N-(2-(1-(4-((4-amino-6-butoxy-2-oxo-2,3-dihydro-1H-imidazo[4,5-c]pyridin-1-yl)methyl)benzyl)piperidin-4-yl)ethyl)benzamidebenzamide]
EC50 (Table 14, read-out: TLR7 EC50): 0.0026 µM

EC50 (Table 10, read-out: TLR7 EC50): > 5 µM
Structure (SMILES): CCCCc1nc2c(N)nc3ccccc3c2n1CCCCNC(=O)c1cc(F)c(NC(=O)[C@H](C)NC(=O)CON)c(F)c1 [AXC-800, (S)—N-(4-(4-amino-2-butyl-1H-imidazo[4,5-c]quinolin-1-yl)butyl)-4-(2-(2-(aminooxy)acetamido)propanamido)-3,5-difluorobenzamide]

Structure (SMILES): CCCCOc1nc(N)c2[nH]c(=O)n(Cc3ccc(CN4CCC(CCNC(=O)CCC(N)CCC(=O)NCCC5CCN(Cc6ccc(Cn7c(=O)[nH]c8c(N)nc(OCCCC)nc87)cc6)CC5)CC4)cc3)c2n1 [AXC-888, 4-amino-N1,N7-bis(2-(1-(4-((6-amino-2-butoxy-8-oxo-7H-purin-9(8H)-yl)methyl)benzyl)piperidin-4-yl)ethyl)heptanediamide]
EC50 [3]: 0.468 µM

Structure (SMILES): CCCCOc1nc(N)c2[nH]c(=O)n(Cc3ccc(CN4CCC(CCNC(=O)[C@H](CCCCNC(=O)CON)NC(=O)CCCC(=O)NCCOCCOCCOCCOCCC(=O)NC(COCCC(=O)NCCOCCOCCOCCOCCOCCOCCOCCOCCOCCOCCOCCOC)(COCCC(=O)NCCOCCOCCOCCOCCOCCOCCOCCOCCOCCOCCOCCOC)COCCC(=O)NCCOCCOCCOCCOCCOCCOCCOCCOCCOCCOCCOCCOC)CC4)cc3)c2n1 [AXC-946, (S)—N-(2-(1-(4-((6-amino-2-butoxy-8-oxo-7,8-dihydro-9H-purin-9-yl)methyl)benzyl)piperidin-4-yl)ethyl)-6-(2-(aminooxy)acetamido)-2-dPEG4-(m-dPEG12)3-amidohexanamide]
EC50 [1]: 1.41 µM
